Experimental data taken from ChEMBL document CHEMBL4616724, “Topoisomerase Inhibitors Addressing Fluoroquinolone Resistance in Gram-Negative Bacteria” (J Med Chem, 2020).
Values after ≈ are worked out from the molar mass of the structure shown.

Experiments:
Pseudomonas aeruginosa [1] = assay: Antibacterial activity against wild type Pseudomonas aeruginosa PAO1 K767 by CLSI-based broth microdilution assay; assay type: functional
[2] = Dose normalized Cmax in rat at 10 mg/kg, po measured up to 24 hrs by LC-MS/MS analysis; assay type: ADME, organism-based; conditions: in vivo
[3] = Intrinsic clearance in mouse liver microsomes at 1 uM in presence of NADPH and measured up to 30 mins by LC-MS/MS analysis; assay type: ADME, Microsome; conditions: read-out: CLH
Escherichia coli [4] = assay: Bacteriostatic activity against Escherichia coli ATCC 25922 infected in mouse model of neutropenic thigh infection assessed as static dose compound administered subcutaneously 2 hrs post infection and measured after 24 hrs by serial dilution method; assay type: functional
Enterobacter = assay: Antibacterial activity against Enterobacter clinical isolates by CLSI-based broth microdilution assay; assay type: functional
[5] = Dose normalized AUC in mouse at 5 mg/kg, po measured up to 24 hrs by LC-MS/MS analysis; assay type: ADME, organism-based; conditions: in vivo
Pseudomonas aeruginosa [6] = assay: Antibacterial activity against Pseudomonas aeruginosa K1542/K767 harboring MexB/MexXY deletion mutant by CLSI-based broth microdilution assay; assay type: functional
K562 = assay: Cytotoxicity against human K562 cells assessed as reduction in cell viability after 72 hrs by Cell-titer Glo assay; assay type: cell-based; conditions: K562, 72 h
[7] = Efflux ratio of apparent permeability in human Caco2 cells at 10 uM after 2 hrs by LC-MS/MS analysis; assay type: ADME, cell-based; conditions: Caco-2
Proteus mirabilis = assay: Antibacterial activity against Proteus mirabilis clinical isolates by CLSI-based broth microdilution assay; assay type: functional
[8] = Tmax in mouse at 5 mg/kg, po measured up to 24 hrs by LC-MS/MS analysis; assay type: ADME, organism-based; conditions: in vivo
Escherichia coli [9] = assay: Antibacterial activity against Escherichia coli clinical isolates by CLSI-based broth microdilution assay; assay type: functional
Pseudomonas aeruginosa [10] = assay: Antibacterial activity against Pseudomonas aeruginosa NB52023 harboring gyrA T83I mutant/ParC S87L mutant by CLSI-based broth microdilution assay; assay type: functional
Klebsiella pneumoniae [11] = assay: Antibacterial activity against wild type Klebsiella pneumoniae ATCC 43816 by CLSI-based broth microdilution assay; assay type: functional
[12] = Intrinsic clearance in human liver microsomes at 1 uM in presence of NADPH and measured up to 30 mins by LC-MS/MS analysis; assay type: ADME, Microsome; conditions: read-out: CLH
Escherichia coli [13] = assay: Antibacterial activity against Escherichia coli BW25113/JW0451-2 harboring AcrB deletion mutant by CLSI-based broth microdilution assay; assay type: functional
[14] = Oral bioavailability in mouse at 5 mg/kg measured up to 24 hrs by LC-MS/MS analysis; assay type: ADME, organism-based; conditions: in vivo
[15] = Protein binding in pooled human plasma at 10 uM incubated for 4 hrs under shaking condition by LC-MS/MS analysis; assay type: ADME, cell-free; conditions: read-out: PPB (converted)
Serratia marcescens = assay: Antibacterial activity against Serratia marcescens clinical isolates by CLSI-based broth microdilution assay; assay type: functional
[16] = Protein binding in Sprague-Dawley rat plasma at 10 uM incubated for 4 hrs under shaking condition by LC-MS/MS analysis; assay type: ADME, cell-free; conditions: read-out: PPB (converted)
[17] = Volume of distribution at steady state in mouse at 5 mg/kg, iv or po measured up to 24 hrs by LC-MS/MS analysis; assay type: ADME, organism-based; conditions: in vivo, read-out: Vdss
NIH3T3 = assay: Phototoxicity against BALB/c mouse 3T3 cells assessed as reduction in cell viability preincubated for 1 hr followed by 5 J/cm2 UVA sunlight irradiation for 50 mins and subsequent replacement of medium and measured after 24 hrs by neutral red uptake assay; assay type: cell-based; conditions: NIH3T3, light or radiation study
[18] = Dissociation constant, pKa of the compound by UV metric method; assay type: physicochemical
Citrobacter = assay: Antibacterial activity against Citrobacter clinical isolates by CLSI-based broth microdilution assay; assay type: functional
[19] = Clearance in rat at 5 mg/kg, iv or 10 mg/kg, po measured up to 24 hrs by LC-MS/MS analysis; assay type: ADME, organism-based; conditions: in vivo
Escherichia coli [20] = assay: Antibacterial activity against wild type Escherichia coli ATCC 25922 at pH 5.8 by CLSI-based broth microdilution assay; assay type: functional
Escherichia coli [21] = assay: Antibacterial activity against wild type Escherichia coli ATCC 25922 at pH 7.4 by CLSI-based broth microdilution assay; assay type: functional
HepG2 = assay: Cytotoxicity against human HepG2 cells assessed as reduction in cell viability after 72 hrs by Cell-titer Glo assay; assay type: cell-based; conditions: HepG2, 72 h
[22] = Photoirradiation factor, ratio of IC50 for BALB/c mouse 3T3 cells under dark condition to IC50 for BALB/c mouse 3T3 cells under 5 J/cm2 sunlight irradiation by neutral red uptake assay; assay type: ADME, cell-based, NIH3T3; conditions: BALB/c 3T3 cells, read-out: Ratio IC50
Pseudomonas aeruginosa [23] = assay: Antibacterial activity against Pseudomonas aeruginosa clinical isolates by CLSI-based broth microdilution assay; assay type: functional
Escherichia coli [24] = assay: Antibacterial activity against Escherichia coli ATCC 25922 infected in mouse model of neutropenic thigh infection compound administered subcutaneously 2 hrs post infection and measured after 24 hrs by serial dilution method; assay type: functional
[25] = Clearance in mouse at 5 mg/kg, iv or po measured up to 24 hrs by LC-MS/MS analysis; assay type: ADME, organism-based; conditions: in vivo
[26] = Dose normalized Cmax in mouse at 5 mg/kg, po measured up to 24 hrs by LC-MS/MS analysis; assay type: ADME, organism-based; conditions: in vivo
[27] = Volume of distribution at steady state in rat at 5 mg/kg, iv or 10 mg/kg, po measured up to 24 hrs by LC-MS/MS analysis; assay type: ADME, organism-based; conditions: in vivo, read-out: Vdss
[28] = molecular target: Voltage-gated inwardly rectifying potassium channel KCNH2 (Homo sapiens, UniProt Q12809); assay: Inhibition of human ERG expressed in CHOK1 cells measured for 10 mins by QPatch automated patch-clamp assay; assay type: cell-based, CHO-K1
[29] = Inhibition of recombinant full-length C-terminal His6-tagged Escherichia coli DNA topoisomerase 4 subunit ParC/ParE using kinetoplast DNA as substrate preincubated for 30 mins followed by substrate addition and measured after 1 hr in presence of ATP by size exclusion chromatography
[30] = Tmax in rat at 10 mg/kg, po measured up to 24 hrs by LC-MS/MS analysis; assay type: ADME, organism-based; conditions: in vivo
[31] = Terminal half life in rat at 5 mg/kg, iv measured up to 24 hrs by LC-MS/MS analysis; assay type: ADME, organism-based; conditions: in vivo, read-out: beta t1/2 (converted)
Klebsiella pneumoniae [32] = assay: Antibacterial activity against Klebsiella pneumoniae clinical isolates by CLSI-based broth microdilution assay; assay type: functional
[33] = Protein binding in CD1 mouse plasma at 10 uM incubated for 4 hrs under shaking condition by LC-MS/MS analysis; assay type: ADME, cell-free; conditions: read-out: PPB (converted)
[34] = Oral bioavailability in rat at 10 mg/kg measured up to 24 hrs by LC-MS/MS analysis; assay type: ADME, organism-based; conditions: in vivo

Sequence of Voltage-gated inwardly rectifying potassium channel KCNH2 (Q12809 whole entry): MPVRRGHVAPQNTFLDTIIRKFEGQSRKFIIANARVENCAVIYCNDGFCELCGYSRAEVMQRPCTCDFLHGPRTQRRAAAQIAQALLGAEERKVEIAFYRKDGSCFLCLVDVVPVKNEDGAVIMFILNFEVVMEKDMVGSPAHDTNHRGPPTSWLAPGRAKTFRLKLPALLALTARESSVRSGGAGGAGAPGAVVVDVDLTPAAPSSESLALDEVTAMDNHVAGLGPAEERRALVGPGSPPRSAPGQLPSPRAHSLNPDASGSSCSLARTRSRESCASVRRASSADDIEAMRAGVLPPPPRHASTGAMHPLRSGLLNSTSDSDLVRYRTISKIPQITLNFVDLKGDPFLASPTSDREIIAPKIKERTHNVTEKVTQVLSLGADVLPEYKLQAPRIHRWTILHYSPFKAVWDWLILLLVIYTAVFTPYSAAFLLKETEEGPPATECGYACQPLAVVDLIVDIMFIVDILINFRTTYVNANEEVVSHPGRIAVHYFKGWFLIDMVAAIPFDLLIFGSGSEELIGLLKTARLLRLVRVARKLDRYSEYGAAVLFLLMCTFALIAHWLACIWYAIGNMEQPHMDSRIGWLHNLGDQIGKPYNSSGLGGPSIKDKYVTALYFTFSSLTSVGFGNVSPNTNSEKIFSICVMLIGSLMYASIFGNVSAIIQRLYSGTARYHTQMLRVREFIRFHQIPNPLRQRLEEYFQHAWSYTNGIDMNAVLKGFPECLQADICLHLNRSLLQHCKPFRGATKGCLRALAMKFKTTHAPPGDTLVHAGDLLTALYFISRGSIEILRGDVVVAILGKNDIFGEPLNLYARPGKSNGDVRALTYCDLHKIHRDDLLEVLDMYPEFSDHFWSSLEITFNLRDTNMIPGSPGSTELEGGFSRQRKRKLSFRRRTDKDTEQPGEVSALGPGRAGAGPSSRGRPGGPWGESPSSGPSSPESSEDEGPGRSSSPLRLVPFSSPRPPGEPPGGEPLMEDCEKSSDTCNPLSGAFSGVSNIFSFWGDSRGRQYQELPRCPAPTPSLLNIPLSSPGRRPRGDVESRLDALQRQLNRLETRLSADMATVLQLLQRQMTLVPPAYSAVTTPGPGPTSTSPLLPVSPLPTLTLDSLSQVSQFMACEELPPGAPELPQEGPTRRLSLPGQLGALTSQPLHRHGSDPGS

Cc1c(N2CC3CC3(N)C2)c(F)cc2c(CN)c(F)c(=O)n(C3CC3)c12 (stereo not given)
MIC (Pseudomonas aeruginosa [1]): 1 µg/mL (≈ 2.77 µM)
Cmax/dose [2]: 0.01 µM/mg/kg
microsomal CLint at 1 µM [3]: 40 µL/min/mg
Activity (Escherichia coli [4]): 45.5 mg/kg/day
MIC (Enterobacter): 0.06 to 32 µg/mL (≈ 0.166 to 88.8 µM)
MIC50 (Enterobacter): 1 µg/mL (≈ 2.77 µM)
MIC90 (Enterobacter): 8 µg/mL (≈ 22.2 µM)
AUC/dose [5]: 0.31 µM·h/mg/kg
MIC (Pseudomonas aeruginosa [6]): 0.25 µg/mL (≈ 0.694 µM)
EC50 (K562): 40 µM
efflux ratio at 2 h, 10 µM [7]: 1.8
MIC (Proteus mirabilis): 0.06 to 32 µg/mL (≈ 0.166 to 88.8 µM)
MIC50 (Proteus mirabilis): 1 µg/mL (≈ 2.77 µM)
MIC90 (Proteus mirabilis): 8 µg/mL (≈ 22.2 µM)
Tmax [8]: 30 min
MIC (Escherichia coli [9]): 0.06 to 8 µg/mL (≈ 0.166 to 22.2 µM)
MIC50 (Escherichia coli [9]): 1 µg/mL (≈ 2.77 µM)
MIC90 (Escherichia coli [9]): 2 µg/mL (≈ 5.55 µM)
MIC (Pseudomonas aeruginosa [10]): 0.5 µg/mL (≈ 1.39 µM)
MIC (Klebsiella pneumoniae [11]): 0.125 µg/mL (≈ 0.347 µM)
microsomal CLint at 1 µM [12]: 18 µL/min/mg
MIC (Escherichia coli [13]): ≤ 0.03 µg/mL
bioavailability [14]: 36%
fraction unbound at 4 h, 10 µM [15]: 0.65
MIC (Serratia marcescens): 0.06 to 32 µg/mL (≈ 0.166 to 88.8 µM)
MIC50 (Serratia marcescens): 1 µg/mL (≈ 2.77 µM)
MIC90 (Serratia marcescens): 8 µg/mL (≈ 22.2 µM)
fraction unbound at 4 h, 10 µM [16]: 0.42
Vd [17]: 5.1 L/kg
IC50 (NIH3T3): 1610 nM
pKa [18]: 7.6 to 8
MIC (Citrobacter): 0.06 to 32 µg/mL (≈ 0.166 to 88.8 µM)
MIC50 (Citrobacter): 1 µg/mL (≈ 2.77 µM)
MIC90 (Citrobacter): 8 µg/mL (≈ 22.2 µM)
clearance [19]: 71 mL/min/kg
MIC (Escherichia coli [20]): 32 µg/mL (≈ 88.8 µM)
MIC (Escherichia coli [21]): 0.06 µg/mL (≈ 0.166 µM)
EC50 (HepG2): 82 µM
selectivity ratio [22]: 621
MIC (Pseudomonas aeruginosa [23]): 1 to 32 µg/mL (≈ 2.77 to 88.8 µM)
MIC50 (Pseudomonas aeruginosa [23]): 8 µg/mL (≈ 22.2 µM)
MIC90 (Pseudomonas aeruginosa [23]): 32 µg/mL (≈ 88.8 µM)
MIC (Escherichia coli [24]): 0.06 µg/mL (≈ 0.166 µM)
clearance [25]: 50 mL/min/kg
Cmax/dose [26]: 0.1 µM/mg/kg
Vd [27]: 24.1 L/kg
IC50 [28]: 114 µM
IC50 [29]: 810 nM
Tmax [30]: 1.3 h
half-life [31]: 492 min
MIC (Klebsiella pneumoniae [32]): 0.25 to 32 µg/mL (≈ 0.694 to 88.8 µM)
MIC50 (Klebsiella pneumoniae [32]): 4 µg/mL (≈ 11.1 µM)
MIC90 (Klebsiella pneumoniae [32]): 16 µg/mL (≈ 44.4 µM)
fraction unbound at 4 h, 10 µM [33]: 0.68
bioavailability [34]: 15%
